Source: the OligoGym collection
After the bases stand the sugars from the 5' end (letter, count) and the backbone: PS all phosphorothioate, else s phosphorothioate and o phosphodiester by linkage. Methylation of C is not given here. e = 2'-O-(2-methoxyethyl) (MOE); k = constrained ethyl (cEt); d = 2'-deoxy (DNA); m = 2'-O-methyl

Molecular target: HSD17B13
Details: ASO, HepaRG

Row | Sequence | target mRNA inhibition (1 µM) [%] | other results
1 | ATGTTTATGTAAGCAC (sugars k3 d10 k3, PS) | 70 | –
2 | ATTAACTACTTCACTA (sugars k3 d10 k3, PS) | 14 | –
3 | ATTACAACCTGGTTTC (sugars k3 d10 k3, PS) | 50 | –
4 | ATTACAGCATCAAGAC (sugars k3 d10 k3, PS) | 63 | –
5 | ATTATACTTTTCCGTC (sugars k3 d10 k3, PS) | 75 | target mRNA inhibition (0.02 µM): 12%; target mRNA inhibition (0.078 µM): 0%; target mRNA inhibition (0.313 µM): 47%; target mRNA inhibition (1.25 µM): 75%; target mRNA inhibition (5 µM): 84%
6 | ATTATTATGTGATTGA (sugars k3 d10 k3, PS) | 39 | –
7 | ATTCATAAACATAGGC (sugars k3 d10 k3, PS) | 36 | –
8 | ATTCATAAGTAGTCTG (sugars k3 d10 k3, PS) | 35 | –
9 | ATTCCATCTATCAGAC (sugars k3 d10 k3, PS) | 7 | –
10 | ATTCTACACTAATATT (sugars k3 d10 k3, PS) | 0 | –
11 | ATTCTGTGGCATGGCT (sugars k3 d10 k3, PS) | 69 | –
12 | ATTGGAATGCTACTTG (sugars k3 d10 k3, PS) | 53 | –
13 | ATTGTCTAAACATCTC (sugars k3 d10 k3, PS) | 84 | target mRNA inhibition (0.02 µM): 18%; target mRNA inhibition (0.078 µM): 33%; target mRNA inhibition (0.313 µM): 58%; target mRNA inhibition (1.25 µM): 83%; target mRNA inhibition (5 µM): 94%
14 | ATTTAGAAACTGCTCC (sugars k3 d10 k3, PS) | 21 | –
15 | ATTTAGAGAGCGATAG (sugars k3 d10 k3, PS) | 14 | –
16 | ATTTAGGGCAAACCTT (sugars k3 d10 k3, PS) | 35 | –
17 | ATTTAGTTGGTAGCTT (sugars k3 d10 k3, PS) | 35 | –
18 | ATTTGCTGCATTAATG (sugars k3 d10 k3, PS) | 20 | –
19 | ATTTTCAGATCCCGTT (sugars k3 d10 k3, PS) | 67 | –
20 | CAAAAGACTTTGAGAC (sugars k3 d9 k3 e1, PS) | 13 | –

Row | Sequence | target mRNA inhibition (1 µM) [%] | other results
21 | CAACGCAACAGTTTAG (sugars k3 d10 k3, PS) | 52 | –
22 | CAAGACAGACCAAGTA (sugars k3 d10 k3, PS) | 27 | –
23 | CAAGAGACACCACCAG (sugars k3 d10 k3, PS) | 50 | –
24 | CAAGAGGATAGTCCAT (sugars kkdddddddddkekek, PS) | 22 | –
25 | CAAGAGTTCTTGCAGA (sugars k3 d10 k3, PS) | 17 | –
26 | CAAGCTACCTCCAAAT (sugars k3 d10 k3, PS) | 25 | –
27 | CAAGGAAAAGCCTGAC (sugars k3 d10 k3, PS) | 59 | –
28 | CAATATGGGATGAGGT (sugars k3 d10 k3, PS) | 62 | –
29 | CAATGAGATTACCCCT (sugars k3 d10 k3, PS) | 16 | –
30 | CAATTATGAATCTGCA (sugars k3 d10 k3, PS) | 25 | –
31 | CAATTTACTTTCAGCC (sugars k3 d10 k3, PS) | 71 | target mRNA inhibition (0.02 µM): 0%; target mRNA inhibition (0.078 µM): 18%; target mRNA inhibition (0.313 µM): 37%; target mRNA inhibition (1.25 µM): 76%; target mRNA inhibition (5 µM): 86%
32 | CACAAGTAAGGTAAAG (sugars k3 d9 k3 e1, PS) | 55 | –
33 | CACAAGTAAGGTAAAG (sugars k3 d10 k3, PS) | 54 | –
34 | CACAGAACCAATATGC (sugars k3 d10 k3, PS) | 54 | –
35 | CACATATGTGAAGAGC (sugars k3 d9 k3 e1, PS) | 74 | target mRNA inhibition (0.02 µM): 6%; target mRNA inhibition (0.078 µM): 9%; target mRNA inhibition (0.313 µM): 39%; target mRNA inhibition (1.25 µM): 57%; target mRNA inhibition (5 µM): 78%
36 | CACAUATGTGAAGAGC (sugars k3 d1 m1 d8 k3, PS) | 65 | –
37 | CACCACGATTGTTACA (sugars k3 d10 k3, PS) | 36 | –
38 | CACCGCGCTTATTAAT (sugars k3 d10 k3, PS) | 7 | –
39 | CACCGTTTTGGGCTAA (sugars k3 d1 m1 d8 k3, PS) | 82 | target mRNA inhibition (0.02 µM): 12%; target mRNA inhibition (0.078 µM): 32%; target mRNA inhibition (0.313 µM): 54%; target mRNA inhibition (1.25 µM): 71%; target mRNA inhibition (5 µM): 84%
40 | CACCGTTTTGGGCTAA (sugars k3 d9 k3 e1, PS) | 71 | –
